Laboratory results: patent publication US20210246115A1 (Bioimics AB, priority 2017, published 2021)
Converted amounts (≈) assume the structure as drawn. Structures can show the parent of a compound that is named as a salt.

Columns and labels:
[1] = system: Staphylococcus aureus (ATCC25923); assay: MIC, broth microdilution (CLSI), Staphylococcus aureus ATCC25923; conditions: Staphylococcus aureus, ATCC25923, read-out: S. aureus ATCC 25923 MIC
[2] = system: E. coli RNase P RNA, M1 RNA; assay: Inhibition of bacterial RNase P activity, IC50 determination (cleavage of pATSerUG by M1 RNA); format: biochemical; conditions: NI: No inhibition
[3] = system: Escherichia coli (ATCC25922); assay: MIC, broth microdilution (CLSI), Escherichia coli; conditions: Escherichia coli, ATCC25922, read-out: E. coli ATCC 25922 MIC, Table XIII

SMILES	MIC [1]	IC50 [2]	MIC [3]	IC50 ([2]; hydrochloride salt)	RNase P Inhibition IC50 [2]
Cl.N[C@H]1CC[C@H](NC(=O)CCc2cn(CC3CCCCC3)c3ccccc23)CC1 [Compound 116, N-((1r,4r)-4-aminocyclohexyl)-3-(1-(cyclohexylmethyl)-1H-indol-3-yl)propanamide hydrochloride salt]	128 µg/mL	158 µM	128 µg/mL		
Cc1cccc(C(CC(=O)NC2CCC(N)CC2)c2cn(CC3CCCCC3)c3cc(Br)ccc23)c1.Cl [Compound 175, N-((1S,4S)-4-aminocyclohexyl)-3-(6-bromo-1-(cyclohexylmethyl)-1H-indol-3-yl)-3-(m-tolyl)propanamide hydrochloride salt]	2 µg/mL		> 512 µg/mL	59 µM	
FC1(F)CCC(Cn2cc(CCNC3CCNCC3)c3cc(Br)ccc32)CC1 [Compound 290, N-(2-(5-bromo-1-((4,4-difluorocyclohexyl)methyl)-1H-indol-3-yl)ethyl)piperidin-4-amine hydrochloride salt]	17 µg/mL	61 µM	17 µg/mL		
COc1ccccc1-c1ccc2c(c1)c(C(CCN[C@H]1CC[C@H](N)CC1)c1cccc(C)c1)cn2CC1CCCCC1 (stereo partly drawn) [Compound 229, (1R,4R)-N1-(3-(1-(cyclohexylmethyl)-5-(2-methoxyphenyl)-1H-indol-3-yl)-3-(m-tolyl)propyl)cyclohexane-1,4-diamine hydrochloride salt]	3 µg/mL	5.4 µM	20 µg/mL		
Cl.N[C@H]1CC[C@H](NC(=O)CC(c2cccnc2)c2cn(CC3CCCCC3)c3ccccc23)CC1 (stereo partly drawn) [Compound 138, N-((1R,4R)-4-aminocyclohexyl)-3-(1-(cyclohexylmethyl)-1H-indol-3-yl)-3-(pyridin-3-yl)propanamide hydrochloride salt]	64 µg/mL	95 µM	128 µg/mL		
Cc1cccc(C(CC(=O)NC2CCC(NC(=N)N)CC2)c2cn(CC3CCCCC3)c3ccccc23)c1 (stereo not drawn) [Compound 201, 3-(1-(cyclohexylmethyl)-1H-indol-3-yl)-N-(4-guanidinocyclohexyl)-3-(m-tolyl) propanamide hydrochloride salt]	2 µg/mL	15.4 µM	75 µg/mL		
Cl.N[C@H]1CC[C@H](NC(=O)CC(c2cn(CC3CCCCC3)c3ccccc23)C2CCOCC2)CC1 (stereo partly drawn) [Compound 132, N-((1R,4R)-4-aminocyclohexyl)-3-(1-(cyclohexylmethyl)-1H-indol-3-yl)-3-(tetrahydro-2H-pyran-4-yl)propanamide hydrochloride salt]	128 µg/mL	191 µM	> 512 µg/mL		
N[C@H]1CC[C@H](NC2CCC(c3cn(CC4CCCCC4)c4ccc(Br)cc34)CC2)CC1 (single isomer, unassigned) [Compound 265, (1r,4r)-N1-(4-(5-bromo-1-(cyclohexylmethyl)-1H-indol-3-yl)cyclohexyl)cyclohexane-1,4-diamine hydrochloride salt]	2 µg/mL		2 µg/mL	15 µM	
Cc1cccc(C(CC(=O)NC2CCC(C(=O)NO)CC2)c2cn(CC3CCCCC3)c3ccccc23)c1 [Compound 247, (1S,4S)-4-(3-(1-(cyclohexylmethyl)-1H-indol-3-yl)-3-(m-tolyl)propanamido)-N-hydroxycyclohexane-1-carboxamide hydrochloride salt]	> 512 µg/mL		> 512 µg/mL		Ni
Cc1cccc(C(CC(=O)NC[C@H]2CC[C@H](CN)CC2)c2cn(CC3CCCCC3)c3ccccc23)c1.Cl (stereo partly drawn) [Compound 166, N-(((1S,4S)-4-(aminomethyl)cyclohexyl)methyl)-3-(1-(cyclohexylmethyl)-1H-indol-3-yl)-3-(m-tolyl)propanamide hydrochloride salt]	9 µg/mL	7 µM	275 µg/mL		
N[C@H]1CC[C@H](NC(=O)CC(c2cn(CC3CCCCC3)c3ccccc23)C2CCNCC2)CC1 (stereo partly drawn) [Compound 107, N-((1r,4r)-4-aminocyclohexyl)-3-(1-(cyclohexylmethyl)-1H-indol-3-yl)-3-(piperidin-4-yl)propanamide hydrochloride salt]	512 µg/mL	1330 µM	> 512 µg/mL		
CN(C)CCNC(=O)CC(c1cn(CC2CCCCC2)c2ccccc12)C1CCNCC1 (stereo not drawn) [Compound 108, 3-(1-(cyclohexylmethyl)-1H-indol-3-yl)-N-(2-(dimethylamino)ethyl)-3-(piperidin-4-yl) propanamide hydrochloride salt]	> 512 µg/mL	2080 µM	> 512 µg/mL		
Cc1cccc(C(CC(=O)NC2CCC(N)CC2)c2c(C)n(CC3CCCCC3)c3ccccc23)c1.Cl [Compound 243, N-((1S,4S)-4-aminocyclohexyl)-3-(1-(cyclohexylmethyl)-2-methyl-1H-indol-3-yl)-3-(m-tolyl)propanamide hydrochloride salt]	17 µg/mL	35 µM	> 512 µg/mL		
Cl.NC1CCC(NC(=O)Cc2cn(CC3CCCCC3)c3ccc(-c4ccccc4OC(F)(F)F)cc23)CC1 [Compound 234, N-((1S,4S)-4-aminocyclohexyl)-2-(1-(cyclohexylmethyl)-5-(2-(trifluoromethoxy)phenyl)-1H-indol-3-yl)acetamide hydrochloride salt]	9 µg/mL	7 µM	289 µg/mL		
Cl.N[C@H]1CC[C@H](NC(=O)CC(c2ccc(F)c(F)c2)c2cn(CC3CCCCC3)c3ccccc23)CC1 (stereo partly drawn) [Compound 134, N-((1R,4R)-4-aminocyclohexyl)-3-(1-(cyclohexylmethyl)-1H-indol-3-yl)-3-(3,4-difluorophenyl)propanamide hydrochloride salt]	4 µg/mL	19 µM	256 µg/mL		
Cl.N[C@H]1CC[C@H](NC(=O)c2cn(CC3CCCCC3)c3ccc(Br)cc23)CC1 [Compound 268, N-((1R,4R)-4-aminocyclohexyl)-5-bromo-1-(cyclohexylmethyl)-1H-indole-3-carboxamide hydrochloride salt]	15 µg/mL	59 µM	30 µg/mL		
Cc1cccc(C(CC(=O)N[C@H]2CC[C@H](N)CC2)c2cn(CC3CCCCC3)c3ccc(F)cc23)c1.Cl (stereo partly drawn) [Compound 125, N-((1R,4R)-4-aminocyclohexyl)-3-(1-(cyclohexylmethyl)-5-fluoro-1H-indol-3-yl)-3-(m-tolyl)propanamide hydrochloride salt]	8 µg/mL	29 µM	256 µg/mL		
N[C@H]1CC[C@H](NCCCc2cn(CC3CCCCC3)c3ccc(Br)cc23)CC1 [Compound 211, (1R,4R)-N1-(3-(5-bromo-1-(cyclohexylmethyl)-1H-indol-3-yl)propyl)cyclohexane-1,4-diamine hydrochloride salt]	4 µg/mL	20 µM	8 µg/mL		
Cc1cccc(C(CC(=O)NC2CCC(N)CC2)c2cn(CC3CCCCC3)c3ccc(C4=CCNCC4)cc23)c1 [Compound 228, N-((1S,4S)-4-aminocyclohexyl)-3-(1-(cyclohexylmethyl)-5-(1,2,3,6-tetrahydropyridin-4-yl)-1H-indol-3-yl)-3-(m-tolyl)propanamide hydrochloride salt]	10 µg/mL	57 µM	40 µg/mL		
Cl.NC1CCC(NC(=O)CCc2cn(CC3CCCCC3)c3ccc(-c4ccccc4Cl)cc23)CC1 [Compound 239, N-((1S,4S)-4-aminocyclohexyl)-3-(5-(2-chlorophenyl)-1-(cyclohexylmethyl)-1H-indol-3-yl)propanamide hydrochloride salt]	4 µg/mL	2.9 µM	271 µg/mL		
Cc1cccc(C(CC(=O)NC2CCCC(N)C2)c2cn(CC3CCCCC3)c3ccccc23)c1.Cl (stereo not drawn) [Compound 178, N-(3-aminocyclohexyl)-3-(1-(cyclohexylmethyl)-1H-indol-3-yl)-3-(m-tolyl)propanamide hydrochloride salt]	8 µg/mL	20 µM	65 µg/mL		
Cc1cccc(C(CC(=O)N[C@H]2CCCC[C@@H]2N)c2cn(CC3CCCCC3)c3ccccc23)c1.Cl (stereo partly drawn) [Compound 189, N-((1S,2S)-2-aminocyclohexyl)-3-(1-(cyclohexylmethyl)-1H-indol-3-yl)-3-(m-tolyl)propanamide hydrochloride salt]	16 µg/mL	16 µM	> 512 µg/mL		
CCOP(=O)(NC1CCC(NC(=O)CC(c2cccc(C)c2)c2cn(CC3CCCCC3)c3ccccc23)CC1)OCC (stereo not drawn) [Compound 226, diethyl ((1s,4s)-4-(3-(1-(cyclohexylmethyl)-1H-indol-3-yl)-3-(m-tolyl)propanamido)cyclohexyl) phosphoramidate]	311 µg/mL (≈ 512 µM)	28.5 µM	> 512 µg/mL		
Cc1cccc(C(CC(=O)NC2CCNCC2)c2cn(CC3CCCCC3)c3ccccc23)c1.Cl (stereo not drawn) [Compound 89, 3-(1-(cyclohexylmethyl)-1H-indol-3-yl)-N-(piperidin-4-yl)-3-(m-tolyl)propanamide hydrochloride salt]	8 µg/mL	37 µM	32 µg/mL		
Cc1cccc(C(CC(=O)N[C@H]2CC[C@H](N)CC2)c2cn(CCC3CCCCC3)c3ccccc23)c1.Cl (stereo partly drawn) [Compound 113, N-((1R,4R)-4-aminocyclohexyl)-3-(1-(2-cyclohexylethyl)-1H-indol-3-yl)-3-(m-tolyl)propanamide hydrochloride salt]	32 µg/mL	14 µM	512 µg/mL		
NC1CCC(NCCCc2cn(CC3CCCCC3)c3ccc(-c4cccc(OC(F)(F)F)c4)cc23)CC1 [Compound 242, (1S,4S)-N1-(3-(1-(cyclohexylmethyl)-5-(3-(trifluoromethoxy)phenyl)-1H-indol-3-yl)propyl)cyclohexane-1,4-diamine hydrochloride salt]	2 µg/mL	6.6 µM	5 µg/mL		
